# Reference: patent publication US20140378451A1, “Cannabinoid-2-Receptor Agonists” (ISIS INNOVATION LIMITED, priority 2011, published 2014)
# Legend:
# hCNR2 (CB2R) = target: T1, hCNR2 (CB2R) (Homo sapiens, UniProt P34972); assay: DiscoveRx cAMP Hunter Express GPCR assay (hCNR2 CHO-K1 cells); type: cell-based; details: for IC50: cAMP Hunter eXpress, hCNR2 CHO-K1 cells, read-out: Assay 2 IC50
# T1 construct: host or cells: CHO-K1 (purchased recombinant cell line)
# Experimental: (§1) Compounds were evaluated for their CB2R agonist potency in the following assays:
# Assay 2—DiscoveRx cAMP Hunter Express GPCR Assay
# The cAMP Hunter eXpress GPCR assay kit and cells used are from DiscoveRx Corporation (95-0040E2) using the manufacturer's protocol without the optional IBMX step. […] Briefly, hCNR2 CHO-K1 cells were plated in the provided medium (50 ul per well) in half-area 96-well plates (Corning 3885) and placed in an incubator 37° C. 5% CO2 overnight. Next day, the medium was aspirated and replaced with ‘antibody solution’ (22.5 ul) (provided concentrated, diluted 1 in 3 with ‘assay buffer’ provided). The freshly made compounds (at a ×4 final concentration) or solvent alone (1.2% DMSO) were added to the wells and incubated for 30 minutes in a 37° C. incubator 5% CO2. A mixture of lysis solution and two substrates (provided with the DiscoveRx kit) was added to the wells and incubated in the dark for one hour at room temperature. A detection reagent (provided) was then added to the wells and incubated in the dark for 3 hours at room temperature. The luminescence was then read with a Perkin-Elmer luminometer.
# hCB2R = target: T2, hCB2R (Homo sapiens, UniProt P34972); assay: cAMP assay on hCB2R clone 3D8.3 (transfected CHO-K1 cells); type: cell-based; details: for IC50: cAMP, hCNR2 CHO-K1 3D8.3 clone, read-out: Assay 1 IC50
# T2 construct: unnamed tag of the plasmid; expressed in transfected cells
# Experimental: as §1
# Assay 1—cAMP Assay on hCB2R Clone 3D8.3:
# Chinese hamster ovary cells (CHO)-K1 were transfected with hCB2R plasmid using Genejuice (Merck). After 48 h the cells were transferred into flasks in the presence of the antibiotic G418 and expanded (with continuous replenishment of the antibiotic). Two single-cell cloning rounds were then performed, followed by verification of the presence of the tag of the plasmid and confirming the receptor was functional in cAMP studies. For the screening of compounds: Briefly, hCNR2 CHO-K1 (3D8.3 clone) cells were plated in Optimem+1% FCS (30000 cells, 100 ul per well) in half-area 96-well plates (Corning 3885) and placed in an incubator 37° C. 5% CO2 overnight. Next day, the medium was aspirated and replaced with ‘antibody solution’ (22.5 ul) (provided concentrated, diluted 1 in 3 with ‘assay buffer’ provided). The freshly made compounds (at a ×4 final concentration) or solvent alone (1.2% DMSO) were added to the wells and incubated for 30 minutes in a 37° C. incubator 5% CO2. A mixture of: Lysis solution (38%), substrates (Emerald-II™ (10%) and Galacton-Star® (2%)) and enzyme donor-labeled cAMP (50%) was added to the wells and incubated in the dark for one hour at room temperature. 30 μl of detection reagent (enzyme acceptor, provided) was then added to the wells and incubated in the dark for 3 hours at room temperature. The luminescence was then read with a Perkin-Elmer luminometer.
# T2 sequence (P34972 whole entry): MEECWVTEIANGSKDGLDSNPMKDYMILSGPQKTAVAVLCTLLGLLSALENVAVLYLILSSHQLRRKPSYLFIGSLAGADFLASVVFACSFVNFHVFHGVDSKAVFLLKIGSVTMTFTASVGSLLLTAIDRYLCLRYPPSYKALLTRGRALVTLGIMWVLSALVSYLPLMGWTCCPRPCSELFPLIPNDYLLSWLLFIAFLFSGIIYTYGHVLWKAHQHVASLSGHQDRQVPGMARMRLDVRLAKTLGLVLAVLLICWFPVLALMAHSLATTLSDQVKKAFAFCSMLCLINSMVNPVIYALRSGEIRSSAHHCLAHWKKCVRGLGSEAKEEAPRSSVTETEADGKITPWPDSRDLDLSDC
# T1 sequence (P34972 whole entry): as above
Structure (SMILES),IC50 (hCNR2 (CB2R)) [nM],IC50 (hCB2R) [nM],Assay 2 decrease at 1 and 3 μM (hCNR2 (CB2R); at 1 and 3 μM),Assay 1 activity at 3 μM (hCB2R; at 3 μM) [% activity at 3 μM]
O=[N+]([O-])c1ccccc1CSc1nnc2c3ccccc3n(Cc3ccccc3F)c2n1 [Example 13],201,201,–,–
CN(C)c1ccc(C(=O)n2c3ccccc3c3nnc(SCc4ccccc4C#N)nc32)cc1 [Example 16],–,–,20% decrease at 1 and 3 μM,~40
"N#Cc1ccccc1CSc1nnc2c3ccccc3n(C(=O)C3CCCCC3)c2n1 [Example 18, 2′-(((5-(Cyclohexanecarbonyl)-5H-[1,2,4]triazino[5,6-b]indol-3-yl)thio)methyl)benzonitrile]",32,12,–,–
"COC(=O)CCC(=O)n1c2ccccc2c2nnc(SCc3ccccc3C#N)nc21 [Example 26, methyl 4″-(3-((2′-cyanobenzyl)thio)-5H-[1,2,4]triazino[5,6-b]indol-5-yl)-4″-oxobutanoate]",48,43,–,–
"COC(=O)CCCC(=O)n1c2ccccc2c2nnc(SCc3ccccc3C#N)nc21 [Example 27, methyl 5″-(3-((2′-cyanobenzyl)thio)-5H-[1,2,4]triazino[5,6-b]indol-5-yl)-5″-oxopentanoate]",42,45,–,–
"CCCCSc1nnc2c(n1)[nH]c1ccccc12 [Example 28, 3-(butylthio)-5H-[1,2,4]triazino[5,6-b]indole]",95,95,–,–

# Now from value to compound, other results behind:
IC50 (hCNR2 (CB2R)) [nM],IC50 (hCB2R) [nM],Structure (SMILES),Assay 2 decrease at 1 and 3 μM (hCNR2 (CB2R); at 1 and 3 μM),Assay 1 activity at 3 μM (hCB2R; at 3 μM) [% activity at 3 μM]
27,57,N#Cc1ccccc1CSc1nnc2c3ccccc3n(C(=O)c3cccc(C(F)(F)F)c3)c2n1 [Example 19],–,–
57,32,"N#Cc1ccccc1CSc1nnc2c3ccccc3n(C(=O)c3ccc(F)cc3)c2n1 [Example 20, 2′-(((5-(4″-Fluorobenzoyl)-5H-[1,2,4]triazino[5,6-b]indol-3-yl)thio)methyl)benzonitrile]",–,–
73,111,"N#Cc1ccccc1CSc1nnc2c3ccccc3n(C(=O)c3ccc(OC(F)(F)F)cc3)c2n1 [Example 21, 2′-(((5-(4″-(Trifluoromethoxy)benzoyl)-5H-[1,2,4]triazino[5,6-b]indol-3-yl)thio)methyl)benzonitrile]",–,–
49,14,"N#Cc1ccccc1CSc1nnc2c3ccccc3n(C(=O)C3CCCC3)c2n1 [Example 22, 2′-(((5-(Cyclopentanecarbonyl)-5H-[1,2,4]triazino[5,6-b]indol-3-yl)thio)methyl)benzonitrile]",–,–
46,31,"N#Cc1ccccc1CSc1nnc2c3ccccc3n(C(=O)c3ccco3)c2n1 [Example 23, 2′-(((5-(Furan-2″-carbonyl)-5H-[1,2,4]triazino[5,6-b]indol-3-yl)thio)methyl)benzonitrile]",–,–
19,14,"N#Cc1ccccc1CSc1nnc2c3ccccc3n(C(=O)c3ccno3)c2n1 [Example 24, 2′-(((5-(Isoxazole-5″-carbonyl)-5H-[1,2,4]triazino[5,6-b]indol-3-yl)thio)methyl)benzonitrile]",–,–
113,38,N#Cc1ccccc1CSc1nnc2c3ccccc3n(C(=O)c3ccccc3)c2n1 [Example 25],–,–
